# Experimental data published in patent US20230117034A1, “PYRAZOLOTRIAZINES” (Bayer Aktiengesellschaft, priority 2019, published 2023).
# Where two headings read alike, the source gives them in different places.
# Tested on: Human tumour cells (cell line panel)
# Assay: Proliferation assay: cell line panel (crystal violet, 4 days)
# Format: cell-based
# Conditions: read-out: Result Category, IC50 (mean)
# Text: Human tumour cells were originally obtained from the American Type Culture Collection (ATCC), from Cell Line Services GmbH (CLS), from the Deutsche Sammlung von Mikroorganismen und Zellkulturen (DSMZ, German Collection of Microorganisms and Cell Cultures), from the Japanese Cancer Research Resources Bank (JCRB), from Public Health England, from the European Collection of Authenticated Cell Cultures (ECACC), from Asterand Biosciences, or from the National Cancer Institute (NCI). Cultivated tumour cells were plated at the density as indicated in Table 6 in 96-well multititer plates in 200 microL of their respective growth medium supplemented 10% fetal calf serum. After 24 hours, the cells of one plate (zero-point plate) were stained with crystal violet (see below), while the medium of the other plates was supplemented with the test substances in various concentrations (0 micromol/L, as well as in the range of 0.003-3 micromol/L; the final concentration of the solvent dimethyl sulfoxide was adjusted to 0.1%) using a Tecan HP D300 Digital Dispenser. The cells were incubated for 4 days in the presence of test substances. Cell proliferation was determined by staining the cells with crystal violet: the cells were fixed by adding 20 microL/measuring point of an 11% glutaric aldehyde solution for 15 minutes at room temperature. After three washing cycles of the fixed cells with water, the plates were dried at room temperature. The cells were stained by adding 100 microL/measuring point of a 0.1% crystal violet solution (pH 3.0). After three washing cycles of the stained cells with water, the plates were dried at room temperature. The dye was dissolved by adding 100 microL/measuring point of a 10% acetic acid solution. The extinction was determined by photometry at a wavelength of 595 nm. The change of cell number, in percent, was calculated by normalization of the measured values to the extinction values of the zero-point plate (=0%) and the extinction of the untreated (0 μM) cells (=100%). The […] values (inhibitory concentration at 50% of maximal effect) were determined by means of a 4 parameter fit.
smiles,measurement,setting,value
"Brc1cnn2c(NCc3nc4ccccc4[nH]3)nc(N3CCOCC3)nc12 [Example 4, N-[(1H-benzimidazol-2-yl)methyl]-8-bromo-2-(morpholin-4-yl)pyrazolo[1,5-a][1,3,5]triazin-4-amine]",IC50,"A673, sarcoma, 5000 cells/well",≤ 30 nM
same,IC50,"AU565, breast cancer, HER2 positive, 4000 cells/well",≤ 30 nM
same,IC50,"BT-474, BT474, breast cancer, HER2 positive, 4000 cells/well",≤ 30 nM
same,IC50,"BT-549, BT549, breast cancer, 4000 cells/well",≤ 30 nM
same,IC50,"CAL-120, breast cancer, triple-negative, 4000 cells/well",≤ 30 nM
same,IC50,"COV318, ovarian cancer, 4000 cells/well",≥ 100 nM
same,IC50,"COV362, ovarian cancer, 4000 cells/well",≥ 100 nM
same,IC50,"Calu-3, lung cancer, non-small cell, 4000 cells/well",30 to 100 nM
same,IC50,"DLD-1, DLD1, colorectal cancer, 4000 cells/well",30 to 100 nM
same,IC50,"DMS-79, DMS79, lung cancer, small cell, 5000 cells/well",30 to 100 nM
same,IC50,"DU-145, DU145, prostate cancer, 3000 cells/well",≥ 100 nM
same,IC50,"EFM-192A, EFM192A, breast cancer, HER2 positive, 4000 cells/well",30 to 100 nM
same,IC50,"HCC70, breast cancer, triple-negative, 5000 cells/well",30 to 100 nM
same,IC50,"HCC202, breast cancer, HER2 positive, 5000 cells/well",≤ 30 nM
same,IC50,"HCC366, lung cancer, non-small cell, 4000 cells/well",30 to 100 nM
same,IC50,"HCC1143, breast cancer, triple-negative, 4000 cells/well",≤ 30 nM
same,IC50,"HCC1419, breast cancer, HER2 positive, 4000 cells/well",≥ 100 nM
same,IC50,"HCC1599, breast cancer, triple-negative, 5000 cells/well",≥ 100 nM
same,IC50,"HCC1806, breast cancer, triple-negative, 4000 cells/well",≥ 100 nM
same,IC50,"HCC1937, breast cancer, triple-negative, 5000 cells/well",≥ 100 nM
same,IC50,"HCC1954, breast cancer, HER2 positive, 4000 cells/well",≤ 30 nM
same,IC50,"HCC2157, breast cancer, triple-negative, 5000 cells/well",≤ 30 nM
same,IC50,"HCT-116, HCT116, colorectal cancer, 3000 cells/well",≥ 100 nM
same,IC50,"HT-29, HT29, colorectal cancer, 2000 cells/well",≤ 30 nM
same,IC50,"HT-144, melanoma, 4000 cells/well",≥ 100 nM
same,IC50,"HUH-6clone5, liver cancer, 4000 cells/well",≥ 100 nM
same,IC50,"HUH-7, liver cancer, 4000 cells/well",≤ 30 nM
same,IC50,"HeLa, cervical cancer, 3000 cells/well",30 to 100 nM
same,IC50,"JHH7, JHH-7, liver cancer, 4000 cells/well",≤ 30 nM
same,IC50,"JHH-4, liver cancer, 4000 cells/well",30 to 100 nM
same,IC50,"JIMT-1, JIMT1, breast cancer, HER2 positive, 4000 cells/well",≤ 30 nM
same,IC50,"KYSE−410, estophageal cancer, 4000 cells/well",30 to 100 nM
same,IC50,"LNCap, prostate cancer, 5000 cells/well",30 to 100 nM
same,IC50,"Lovo, colorectal cancer, 4000 cells/well",30 to 100 nM
same,IC50,"MCF7, breast cancer, 4000 cells/well",≥ 100 nM
same,IC50,"MDA-MB-231, breast cancer, triple-negative, 4000 cells/well",≤ 30 nM
same,IC50,"MDA-MB-361, breast cancer, HER2 positive, 5000 cells/well",30 to 100 nM
same,IC50,"MDA-MB-436, breast cancer, triple-negative, 4000 cells/well",≤ 30 nM
same,IC50,"MDA-MB-468, breast cancer, triple-negative, 4000 cells/well",≤ 30 nM
same,IC50,"MKN-1, MKN1, gastric cancer, 4000 cells/well",30 to 100 nM
same,IC50,"NCI-H23, lung cancer, non-small cell, 3000 cells/well",30 to 100 nM
same,IC50,"NCI-H69, lung cancer, small cell, 4000 cells/well",30 to 100 nM
same,IC50,"NCI-H82, lung cancer, small cell, 4000 cells/well",30 to 100 nM
same,IC50,"NCI-H345, lung cancer, small cell, 5000 cells/well",30 to 100 nM
same,IC50,"NCI-H446, lung cancer, small cell, 4000 cells/well",30 to 100 nM
same,IC50,"NCI-H460, lung cancer, non-small cell, 3000 cells/well",≥ 100 nM
same,IC50,"NCI-H526, lung cancer, small cell, 4000 cells/well",30 to 100 nM
same,IC50,"NCI-H1155, lung cancer, non-small cell, 4000 cells/well",30 to 100 nM
same,IC50,"NCI-H1299, lung cancer, non-small cell, 4000 cells/well",30 to 100 nM
same,IC50,"NCI-H1623, lung cancer, non-small cell, 5000 cells/well",30 to 100 nM
same,IC50,"NCI-H1734, lung cancer, non-small cell, 5000 cells/well",≤ 30 nM
same,IC50,"NCI-H1793, lung cancer, non-small cell, 5000 cells/well",30 to 100 nM
same,IC50,"NCI-H1836, lung cancer, small cell, 5000 cells/well",30 to 100 nM
same,IC50,"NCI-H1838, lung cancer, non-small cell, 4000 cells/well",≤ 30 nM
same,IC50,"NCI-H1975, lung cancer, non-small cell, 3000 cells/well",30 to 100 nM
same,IC50,"NCI-H2009, lung cancer, non-small cell, 5000 cells/well",30 to 100 nM
same,IC50,"NCI-H2029, lung cancer, small cell, 5000 cells/well",≤ 30 nM
same,IC50,"NCI-H2030, lung cancer, non-small cell, 4000 cells/well",≤ 30 nM
same,IC50,"NCI-H2405, lung cancer, non-small cell, 4000 cells/well",≥ 100 nM
same,IC50,"NCI-N87, gastric cancer, 4000 cells/well",≤ 30 nM
same,IC50,"OVCAR-3, OVCAR3, ovarian cancer, 5000 cells/well",30 to 100 nM
same,IC50,"OVCAR-8, OVCAR8, ovarian cancer, 4000 cells/well",30 to 100 nM
same,IC50,"PC-3, prostate cancer, 3000 cells/well",30 to 100 nM
same,IC50,"PLC/PRF/5, liver cancer, 4000 cells/well",≤ 30 nM
same,IC50,"SK-BR-3, breast cancer, HER2 positive, 5000 cells/well",≤ 30 nM
same,IC50,"SK-HEP1, SK-HEP-1, liver cancer, 4000 cells/well",≤ 30 nM
same,IC50,"SK-OV-3, ovarian cancer, 4000 cells/well",≥ 100 nM
same,IC50,"SNU-449, SNU449, liver cancer, 4000 cells/well",30 to 100 nM
same,IC50,"SUM149, breast cancer, triple-negative, 4000 cells/well",≤ 30 nM
same,IC50,"SW480, colorectal cancer, 3000 cells/well",≤ 30 nM
same,IC50,"SW-620, SW620, colorectal cancer, 3000 cells/well",≤ 30 nM
same,IC50,"U2OS, U2-OS, sarcoma, 5000 cells/well",≤ 30 nM
same,IC50,"U-251, U251MG, glioblastoma, 3000 cells/well",30 to 100 nM
